“Also recorded” adds a separate entry of the source.
What was measured:
[1] = system: A549; test: 3 day MTS cytotoxicity assay, A549; assay type: cell-based; settings: Homo sapiens; A549, ITK/BTK-negative; mean ± SD, n ≥ 6
Description: (§1) The cytotoxic activity of all the 10 compounds was tested under in vitro conditions using a 3 day standard 3-(4,5-dimethylthiazol-2yl)-5-(3-carboxymethoxyphenyl)-2-(4-sulfophenyl)-2H-tetrazolium reduction assay in 384-well plates on a robotic high-throughput screening platform (HighResBio, Boston, MA) as described elsewhere.[38] The IC50 values were calculated from the respective dose–response curves of compounds with Dotmatics (San Diego, CA, USA).

[2] = system: HCT116; test: 3 day MTS cytotoxicity assay, HCT116; assay type: cell-based; settings: Homo sapiens, HCT-116; HCT116, ITK/BTK-negative; mean ± SD, n ≥ 6
Description: as §1

[3] = system: HCT116p53^–/–; test: 3 day MTS cytotoxicity assay, HCT116p53-/-; assay type: cell-based; settings: ITK/BTK-negative, mean ± SD, n ≥ 6
Description: as §1

[4] = system: U2OS; test: 3 day MTS cytotoxicity assay, U2OS; assay type: cell-based; settings: Homo sapiens, ITK/BTK-negative, mean ± SD, n ≥ 6
Description: as §1

[5] = system: JURKAT; test: 3 day MTS cytotoxicity assay, JURKAT; assay type: cell-based; settings: Homo sapiens, ITK-positive, mean ± SD, n ≥ 6
Description: as §1

[6] = system: CCRF-CEM; test: 3 day MTS cytotoxicity assay, CCRF-CEM; assay type: cell-based; settings: Homo sapiens, ITK-positive, mean ± SD, n ≥ 6
Description: as §1

[7] = system: RAMOS; test: 3 day MTS cytotoxicity assay, RAMOS; assay type: cell-based, human; settings: for activity in RAMOS cells: BTK-high; for IC50: Homo sapiens, Ramos, BTK-positive, mean ± SD, n ≥ 6
Description: as §1

[8] = system: K562; test: 3 day MTS cytotoxicity assay, K562; assay type: cell-based; settings: Homo sapiens; K562, BTK-positive; mean ± SD, n ≥ 6
Description: as §1

[9] = system: MRC-5; test: 3 day MTS cytotoxicity assay, MRC-5; assay type: cell-based; settings: Homo sapiens, MRC5; MRC-5, non-cancer fibroblasts; mean ± SD, n ≥ 6
Description: as §1

[10] = system: BJ; test: 3 day MTS cytotoxicity assay, BJ; assay type: cell-based; settings: Homo sapiens, non-cancer fibroblasts, mean ± SD, n ≥ 6
Description: as §1

[11] = Plasma stability; assay type: in vitro ADME; settings: human plasma, in vitro
Description: (§2) Selected compounds were assayed for human plasma and liver microsomal stability in vitro, PAMPA and cellular permeability models of gastrointestinal resorption, and the blood–brain barrier using Caco-2 and MDR1-MCDK cells as previously described.[38] Samples were analyzed in an Agilent RapidFire 300 High-Throughput Mass Spectrometry System (RF-MS; Agilent, Wakefield, MA) with subsequent detection in a Qtrap 5500 mass spectrometer (AB Sciex, Concord, Canada).

[12] = Liver microsomal stability; assay type: in vitro ADME; settings: human liver microsomes, intrinsic clearance category
Description: as §2

[13] = Plasma protein binding; assay type: in vitro ADME; settings: in vitro, read-out: plasma protein binding (% bound) (converted)
[14] = Parallel artificial membrane permeability assay (PAMPA); assay type: in vitro ADME; settings: passive diffusion
Description: as §2

[15] = MDR1-MDCK permeability (blood–brain barrier model); assay type: in vitro ADME; settings: dog
Description: as §2

[16] = system: MDR1-MDCK cells; test: MDR1-MDCK permeability (blood–brain barrier model); assay type: in vitro ADME
Description: as §2

[17] = system: MDR1; test: MDR1-MDCK permeability (blood–brain barrier model); assay type: in vitro ADME; settings: dog
Description: as §2

[18] = Caco-2 permeability (gastrointestinal resorption model); assay type: in vitro ADME; settings: human, Caco-2
Description: as §2

[19] = system: Caco-2 cells; test: as above; assay type: in vitro ADME; settings: for active efflux: Caco-2; for Caco-2 category: Caco-2 permeability
Description: as §2

[20] = system: pBTK (Tyr223); test: Western blot of BTK phosphorylation in RAMOS cells; assay type: cell-based, human
Description: (§3) RAMOS cells were plated at 0.5 × 10^6/mL density in six-well plates. After 24 h, cells were treated with compounds at concentrations of 1, 10, and 50 μM for 24 h. The concentration of the vehicle was 0.5% in the highest test drug concentration (50 μM). LPS stimulation of RAMOS cells followed by drug treatment was performed as described previously.[19] […]
(§4) Primary antibodies used were purchased from Cell Signaling Technology, Inc., Massachusetts, USA, and included BTK (1:1000; Cat. # 3533S), phosphor-BTK (Tyr223) (1:1000; Cat # 5082S), p44/42 MAPK (ERK1/2) (1:1000; Cat # 9102S), phospho-p44/42 MAPK (ERK1/2) (Thr202/Tyr204) (1:1000; Cat # 4376S), p38 MAPK (1:1000; Cat # 9212S), phospho-p38 MAPK (Thr180/Tyr182) (1:1000; Cat # 9211S), Lyn (C13F9) (1:1000: Cat # 2796), phospho-Lyn (Tyr507) (1:1000; Cat #2731), Syk (1:1000; Cat # 2712), phospho-Syk (Tyr525/526) (C87C1) (1:1000; Cat # 2710), and GAPDH (1:4000; Cat. # 2118). […] Band intensities were quantified using NIH ImageJ Software (NIH, Bethesda, Maryland, USA).

[21] = system: Lyn phosphorylation; test: Western blot of Lyn phosphorylation in RAMOS cells; assay type: cell-based, human; settings: 24 h
Description: as §3, §4

[22] = system: Syk phosphorylation; test: Western blot of Syk phosphorylation in RAMOS cells; assay type: cell-based, human; settings: 24 h
Description: as §3, §4

[23] = system: pBTK (Tyr223); test: Western blot of pBTK in LPS-stimulated RAMOS cells; assay type: cell-based, human; settings: RAMOS cells stimulated with LPS 10 min, then 50 μM for 3 h
Description: as §3, §4

[24] = system: pERK 1/2 (Thr202/Tyr204); test: Western blot of pERK1/2 in LPS-stimulated RAMOS cells; assay type: cell-based, human; settings: RAMOS cells stimulated with LPS 10 min, then 50 μM for 3 h
Description: as §3, §4

[25] = system: p-p38 (Thr180/Tyr182); test: Western blot of p-p38 in LPS-stimulated RAMOS cells; assay type: cell-based, human; settings: RAMOS cells stimulated with LPS 10 min, then 50 μM for 3 h
Description: as §3, §4

| plasma stability (category) [11] | fraction unbound [13] | PAMPA category [14] | recovery [15] | MDR1-MDCK CNS (−ive/+ive) [16] | active efflux [16] | Papp [17] | efflux ratio [17] | SMILES | IC50 [1] | IC50 [2] | IC50 [3] | IC50 [4] | IC50 [5] | IC50 [6] | activity in RAMOS cells [7] | IC50 [7] | IC50 [8] | IC50 [9] | IC50 [10] | microsomal stability (clearance) [12] | also measured |
| --- | --- | --- | --- | --- | --- | --- | --- | --- | --- | --- | --- | --- | --- | --- | --- | --- | --- | --- | --- | --- | --- |
| stable | 0.0334 | medium | 86.9% | CNS –ive | active efflux: yes | 5.43 ×10⁻⁶ cm/s | 13.1 | CCCCC(=O)N1CCN(S(=O)(=O)c2ccc3c(c2)C(=C2CCCC2)C(=O)N3)CC1 [9h, 3-Cyclopentylidene-5-((4-pentanoylpiperazin-1-yl)sulfonyl)indolin-2-one] | > 50 µM | > 50 µM | > 50 µM | > 50 µM | > 50 µM | 46.1 ± 3.13 µM | selective cytotoxicity; also recorded: showed activity; also recorded: good anticancer activity in the micromole range | 2.75 ± 0.8 µM | > 50 µM | > 50 µM | > 50 µM | medium | Papp [18]: 7.18 ×10⁻⁶ cm/s; efflux ratio [18]: 3.34; recovery [18]: 63.2%; active efflux [19]: active efflux: yes; Caco-2 category [19]: medium permeability; also recorded: moderate; pBTK (Tyr223) levels ([20]; 24 h, 50 μM): decrease was significant; pBTK (Tyr223) levels ([20]; 24 h, 1, 10, and 50 μM): selective inhibition of pBTK (Tyr223); Lyn phosphorylation [21]: without affecting; also recorded: did not affect; Syk phosphorylation [22]: without affecting; also recorded: did not affect; pBTK (Tyr223) activation [23]: significantly inhibited; pERK 1/2 (Thr202/Tyr204) levels [24]: decrease; p-p38 (Thr180/Tyr182) levels [25]: decrease |
| stable | 0.114 | low | 60.2% | CNS –ive | active efflux: yes | 2.92 ×10⁻⁶ cm/s | 9.3 | O=C1Nc2ccc(S(=O)(=O)N3CCN(C(=O)C4CCCCC4)CC3)cc2C1=C1CCCC1 [9b, 5-((4-(Cyclohexanecarbonyl)piperazin-1-yl)sulfonyl)-3-cyclopentylideneindolin-2-one] | > 50 µM | > 50 µM | > 50 µM | > 50 µM | > 50 µM | 35.5 ± 7.05 µM | selective cytotoxicity; also recorded: showed activity; also recorded: good anticancer activity in the micromole range | 3.04 ± 0.56 µM | > 50 µM | > 50 µM | > 50 µM | metabolized quickly by microsomes and high | Papp [18]: 3.18 ×10⁻⁶ cm/s; efflux ratio [18]: 2.69; recovery [18]: 45.4%; active efflux [19]: active efflux: yes; Caco-2 category [19]: low permeability and low; Lyn phosphorylation [21]: significantly inhibited; pBTK (Tyr223) activation [23]: no significant effect; p-p38 (Thr180/Tyr182) levels [25]: only evidenced on p-p38 (Thr180/Tyr182) levels |

Source: publication PMC10882696, “Novel 5-Substituted Oxindole Derivatives as Bruton’s Tyrosine Kinase Inhibitors: Design, Synthesis, Docking, Molecular Dynamics Simulation, and Biological Evaluation” (ACS Omega, 2024)
